From the NIST ThermoML archive (doi:10.1021/acs.jced.8b01204)

Assay: xn = mol fraction of the nth substance listed
Conditions: 101 kPa, Liquid; for speed of sound: Single path-length method; for mass density: Vibrating tube method

C[N+]1(CC2CO2)CCCC1=O.O=C([O-])c1ccccc1O (stereo not given) [1-methyl-1-(oxiran-2-ylmethyl)-2-oxopyrrolidinium salicylate] + CC(=O)O
Conditions	mass density, 293.15 K [kg/m3]	mass density, 298.15 K [kg/m3]	mass density, 303.15 K [kg/m3]	mass density, 308.15 K [kg/m3]	mass density, 313.15 K [kg/m3]	speed of sound, 293.15 K [m/s]	speed of sound, 298.15 K [m/s]	speed of sound, 303.15 K [m/s]	speed of sound, 308.15 K [m/s]	speed of sound, 313.15 K [m/s]
x1 = 0.0301	1080.9	1075.6	1070.3	1065	1059.7	1250	1232.7	1215.5	1198.6	1181.8
x1 = 0.0701	1103.7	1098.6	1093.5	1088.4	1083.3	1310.7	1294	1277.3	1260.7	1244.4
x1 = 0.1001	1117.2	1112.3	1107.3	1102.4	1097.4	1349.7	1333.2	1316.5	1300.1	1283.9
x1 = 0.2001	1147.6	1143	1138.3	1133.6	1128.8	1441	1424.6	1408.1	1391.8	1375.7
x1 = 0.3003	1166.3	1161.7	1157.2	1152.7	1148.9	1496.7	1480.2	1463.7	1447.5	1431
x1 = 0.4013	1178.7	1174.2	1169.7	1165.5	1161	1535	1515.8	1497.4	1480.2	1463.1
x1 = 0.5017	1187.3	1183	1178.7	1174.5	1170.1	1561.4	1541.8	1523.2	1504.9	1488.8
x1 = 0.6002	1193.9	1189.6	1185.4	1181.3	1177	1582.2	1562.5	1542.9	1528.5	1515.4
x1 = 0.7019	1199.1	1194.9	1190.7	1186.7	1182.5	1600	1582	1565.2	1548.8	1532.6
x1 = 0.8024	1203.6	1199.3	1195.1	1191	1186.7	1617.3	1600	1583	1566.5	1550.4
x1 = 0.901	1207	1202.7	1198.6	1194.5	1190.2	1626.8	1609.2	1592.2	1575.7	1559.5
x1 = 1	1209.8	1205.5	1201.3	1197.2	1193	1634.2	1614.5	1595.7	1577.6	1559.5

C[N+]1(CC2CO2)CCCC1=O.O=C([O-])c1ccccc1O (stereo not given) [1-methyl-1-(oxiran-2-ylmethyl)-2-oxopyrrolidinium salicylate] + CCC(=O)O
Conditions	mass density, 293.15 K [kg/m3]	mass density, 298.15 K [kg/m3]	mass density, 303.15 K [kg/m3]	mass density, 308.15 K [kg/m3]	mass density, 313.15 K [kg/m3]	speed of sound, 293.15 K [m/s]	speed of sound, 298.15 K [m/s]	speed of sound, 303.15 K [m/s]	speed of sound, 308.15 K [m/s]	speed of sound, 313.15 K [m/s]
x1 = 0.0303	1018.7	1013.6	1008.2	1003.2	998	1211.9	1193.4	1175	1156.8	1138.9
x1 = 0.0701	1046.2	1041.2	1036.2	1031.3	1026.3	1266.7	1248.7	1230.8	1213.2	1195.8
x1 = 0.1006	1063.4	1058.6	1053.7	1048.9	1044	1303.5	1286	1268.5	1251.1	1233.7
x1 = 0.2	1105.7	1101.9	1096.5	1091.8	1087.2	1400.3	1383.3	1366.1	1349.2	1332.5
x1 = 0.3007	1133.9	1129.4	1124.9	1120.4	1115.9	1465.8	1449	1432	1415.3	1398.7
x1 = 0.4009	1153.6	1149.2	1144.8	1140.3	1135.9	1505.7	1488.9	1472	1455.4	1439
x1 = 0.501	1168.6	1164.2	1159.8	1155.4	1151	1538.8	1521.9	1505	1488.4	1472
x1 = 0.6002	1180.6	1176.3	1172	1167.6	1163.3	1565.4	1547.8	1530.9	1514.3	1497.9
x1 = 0.7002	1190.5	1186.2	1181.9	1177.6	1173.3	1584.5	1566.8	1549.5	1532.7	1516.3
x1 = 0.8005	1198.3	1194.1	1189.8	1185.5	1181.2	1599.7	1581.7	1564.2	1547.3	1530.8
x1 = 0.901	1204.6	1200.4	1196.1	1191.8	1187.5	1615.4	1596.4	1578.6	1561.5	1544.9
x1 = 1	1209.8	1205.5	1201.3	1197.2	1193	1634.2	1614.5	1595.7	1577.6	1559.5
